Measurements from US9090593B2, “Bicyclic compounds as Pim inhibitors” (AMGEN INC., priority 2010, dated 2015).
Read-outs that look alike come from different tables or passages of the source.

Columns and labels:
[1] = target: T1, full length recombinant Pim-2 protein (Homo sapiens, UniProt Q9P1W9); assay: Pim-2 enzyme assay (HTRF, phosphorylation of biotinylated-BAD (S112) peptide); type: biochemical; conditions: read-out: Pim2_IC50
T1 construct: by full length recombinant Pim-1, Pim-2, or Pim-3 protein; hexahistidine tag followed by a thrombin cleavage site (N); made in house; host or cells: Sf9 (baculovirus) or E. coli (pET28)
T1 sequence (Q9P1W9 whole entry): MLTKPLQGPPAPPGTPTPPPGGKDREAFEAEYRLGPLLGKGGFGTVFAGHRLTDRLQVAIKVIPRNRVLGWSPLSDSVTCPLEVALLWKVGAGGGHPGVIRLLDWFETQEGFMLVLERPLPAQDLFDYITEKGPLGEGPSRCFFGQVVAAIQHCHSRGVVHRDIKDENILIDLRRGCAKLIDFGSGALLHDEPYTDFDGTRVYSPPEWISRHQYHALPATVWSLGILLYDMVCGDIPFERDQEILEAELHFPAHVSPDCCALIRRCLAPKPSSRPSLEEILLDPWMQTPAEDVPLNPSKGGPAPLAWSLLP
Outline: (§1)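 Inhibition is reported as IC50 from a 4-parameter logistic fit of percent-of-control HTRF signal, which tracks phospho-BAD (S112) formed by full-length human Pim-1 or Pim-2. Reactions ran in 60 mM Hepes, pH 7.0, 0.05% BSA, 2 mM DTT.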

[2] = target: T2, full length recombinant Pim-1 protein (Homo sapiens, UniProt P11309); assay: Pim-1 enzyme assay (HTRF, phosphorylation of biotinylated-BAD (S112) peptide); type: biochemical; conditions: read-out: Pim_1_IC50
T2 construct: by full length recombinant Pim-1, Pim-2, or Pim-3 protein; hexahistidine tag followed by a thrombin cleavage site (N); made in house; host or cells: Sf9 (baculovirus) or E. coli (pET28)
T2 sequence (P11309 whole entry): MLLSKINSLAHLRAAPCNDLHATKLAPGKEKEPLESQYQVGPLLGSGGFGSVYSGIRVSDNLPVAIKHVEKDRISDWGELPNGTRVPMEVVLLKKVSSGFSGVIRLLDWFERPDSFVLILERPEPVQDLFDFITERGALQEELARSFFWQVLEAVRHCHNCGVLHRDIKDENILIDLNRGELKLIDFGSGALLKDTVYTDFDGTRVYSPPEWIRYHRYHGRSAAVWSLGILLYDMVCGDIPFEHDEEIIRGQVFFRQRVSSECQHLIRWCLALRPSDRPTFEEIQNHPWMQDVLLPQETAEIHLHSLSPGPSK
Outline: as §1

[3] = target: T3, full length recombinant Pim-3 protein (Homo sapiens, UniProt Q86V86); assay: Pim-3 enzyme assay (HTRF, phosphorylation of biotinylated-BAD (S112) peptide); type: biochemical; conditions: read-out: Pim3 IC50
T3 construct: by full length recombinant Pim-1, Pim-2, or Pim-3 protein; purchased Millipore (UK)
Text: Pim-3 was purchased from Millipore (UK).
The phosphorylation of biotinylated-BAD (S112) peptide by full length recombinant Pim-1, Pim-2, or Pim-3 protein was detected with streptavidin:Allophycocyanin (APC) conjugate and a europium (Eu) labeled antibody directed against phosphorylated-BAD (S112). […] The fluorescence is directly proportional to the amount of phosphorylated BAD peptide present in the reaction.
A reference compound was included on each assay plate in order to validate that plate; on one plate of every assay run, two additional reference compounds were included.
The final buffer conditions were as follows: 60 mM Hepes, pH 7.0, 0.05% BSA, 2 mM DTT. […] The reaction was stopped by the addition of 3 mM EDTA, and fluorescence was measured by an HTRF® Rubystar microplate reader. For each plate, percent of control (POC) values were calculated for each well. Values for the IC50 IP were estimated using a standard 4-parameter logistic model.

[4] = target: T4, Pim-1 stably transfected into the U2OS human osteogenic sarcoma line (Homo sapiens, UniProt P11309); assay: Pim cell assay, phospho-BAD normalized against total BAD, U2OS stably transfected with Pim-1; type: cell-based; conditions: U2OS stably transfected with Pim-1; phospho-BAD normalized against total BAD; 29 min incubation; read-out: Pim1_Cell_IC50_
T4 construct: expressed in transfected cells; host or cells: U2OS human osteogenic sarcoma line
T4 sequence (P11309 whole entry): as the sequence (P11309 whole entry) above
Outline: (§2)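 U2OS cells stably expressing Pim-1 or Pim-2 were plated overnight at 37 °C, then dosed over a 10-point curve (final 0.3% DMSO; DMSO alone as high control). Lysates assayed for phospho- and total BAD by Meso Scale immunoassay; % phosphoprotein = (2×phospho)/(phospho+total)×100.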

[5] = target: T5, Pim-2 stably transfected into the U2OS human osteogenic sarcoma line (Homo sapiens, UniProt Q9P1W9); assay: Pim cell assay, phospho-BAD normalized against total BAD, U2OS stably transfected with Pim-2; type: cell-based; conditions: U2OS stably transfected with Pim-2; phospho-BAD normalized against total BAD; 29 min incubation; read-out: Pim2_Cell_IC50_
T5 construct: expressed in transfected cells; host or cells: U2OS human osteogenic sarcoma line
T5 sequence (Q9P1W9 whole entry): as the sequence (Q9P1W9 whole entry) above
Outline: as §2

| IC50 ([1]; enzyme assay, Pim-2) | IC50 ([2]; enzyme assay, Pim-1) | IC50 [3] | IC50 [4] | IC50 [5] | IC50 [1] | IC50 [2] | Compound |
| --- | --- | --- | --- | --- | --- | --- | --- |
| 264 nM | 75 nM | 34 nM | – | – | – | – | Fc1cccc(F)c1-c1ccc2[nH]nc(-c3cncc(O[C@@H]4CNCC[C@H]4F)n3)c2c1 (single isomer, unassigned) [Example 18, 5-(2,6-difluorophenyl)-3-(6-(trans-4-fluoropiperidin-3-yloxy)pyrazin-2-yl)-1H-indazole] |
| 1010 nM | 227 nM | 172 nM | – | – | – | – | COc1cncc(-c2ccc3[nH]nc(-c4cncc(OC)c4)c3c2)c1 [Example 29, 3,5-Bis(5-methoxypyridin-3-yl)-1H-indazole] |
| 2300 nM | 124 nM | 104 nM | – | – | – | – | NC1CCN(c2cncc(-c3n[nH]c4ccc(-c5c(F)cccc5F)cc34)c2)CC1 [Example 35, 1-(5-(5-(2,6-difluorophenyl)-1H-indazol-3-yl)pyridin-3-yl)piperidin-4-amine] |
| > 3000 nM | 629 nM | 926 nM | – | – | – | – | NC1CCN(c2cncc(-c3n[nH]c4ccc(N5CCCCC5=O)cc34)n2)CC1 [Example 91, 1-(3-(6-(4-amino-1-piperidinyl)-2-pyrazinyl)-1H-indazol-5-yl)-2-piperidinone] |
| > 1000 nM | 86 nM | 118 nM | – | – | – | – | Nc1cccnc1-c1ccc2[nH]nc(-c3cncc(N4CCC(N)CC4)n3)c2c1 [Example 94, 2-(3-(6-(4-amino-1-piperidinyl)-2-pyrazinyl)-1H-indazol-5-yl)-3-pyridinamine] |
| > 1000 nM | 848 nM | 1120 nM | – | – | – | – | Nc1ncc(-c2ccc3[nH]nc(-c4cncc(N5CCC(N)CC5)n4)c3c2)c(NC2CCCC2)n1 [Example 96, 5-(3-(6-(4-amino-1-piperidinyl)-2-pyrazinyl)-1H-indazol-5-yl)-N~4~-cyclopentyl-2,4-pyrimidinediamine] |
| 224 nM | 34 nM | 68 nM | – | – | – | – | Cc1c(N)cccc1-c1ccc2[nH]nc(-c3cncc(N4CCC(N)CC4)n3)c2c1 [Example 103, 1-(6-(5-(3-amino-2-methylphenyl)-1H-indazol-3-yl)-2-pyrazinyl)-4-piperidinamine] |
| 897 nM | 499 nM | 278 nM | – | – | – | – | NC1CCN(c2cncc(-c3n[nH]c4ccc(-c5cccc6c5C5(CCOCC5)CN6)cc34)n2)CC1 [Example 106, 1-(6-(5-(1,2,2′,3′,5′,6′-hexahydrospiro[indole-3,4′-pyran]-4-yl)-1H-indazol-3-yl)-2-pyrazinyl)-4-piperidinamine] |
| 192 nM | 30 nM | 67 nM | – | – | – | – | Nc1ccc(OC(F)(F)F)c(-c2ccc3[nH]nc(-c4cncc(N5CCC(N)CC5)n4)c3c2)c1 [Example 107, 1-(6-(5-(5-amino-2-(trifluoromethoxy)phenyl)-1H-indazol-3-yl)-2-pyrazinyl)-4-piperidinamine] |
| 292 nM | 29 nM | 87 nM | – | – | – | – | NC1CCN(c2cncc(-c3n[nH]c4ccc(-c5ccnc6cc(OC(F)(F)F)ccc56)cc34)n2)CC1 [Example 111, 1-(6-(5-(7-(trifluoromethoxy)-4-quinolinyl)-1H-indazol-3-yl)-2-pyrazinyl)-4-piperidinamine] |
| 521 nM | 32 nM | 116 nM | – | – | – | – | N#Cc1ccc2c(-c3ccc4[nH]nc(-c5cncc(N6CCC(N)CC6)n5)c4c3)ccnc2c1 [Example 112, 4-(3-(6-(4-amino-1-piperidinyl)-2-pyrazinyl)-1H-indazol-5-yl)-7-quinolinecarbonitrile] |
| 26 nM | 27 nM | 22 nM | – | – | – | – | CC(C)(C)NC(=O)c1ccc(F)c(-c2ccc3[nH]nc(-c4cncc(O[C@@H]5CCCNC5)n4)c3c2)c1 [Example 116, N-tert-butyl-4-fluoro-3-(3-(6-((3R)-3-piperidinyloxy)-2-pyrazinyl)-1H-indazol-5-yl)benzamide] |
| 80 nM | 21 nM | 16 nM | – | – | – | – | O=c1[nH]cncc1-c1ccc2[nH]nc(-c3cncc(O[C@@H]4CCCNC4)n3)c2c1 [Example 125, 5-(3-(6-((3R)-3-piperidinyloxy)-2-pyrazinyl)-1H-indazol-5-yl)-4(3H)-pyrimidinone] |
| 59 nM | 31 nM | 30 nM | – | – | – | – | O=c1cc(-c2ccc3[nH]nc(-c4cncc(O[C@@H]5CCCNC5)n4)c3c2)c(Cl)c[nH]1 [Example 128, 5-chloro-4-(3-(6-((3R)-3-piperidinyloxy)-2-pyrazinyl)-1H-indazol-5-yl)-2(1H)-pyridinone] |
| 30 nM | 3 nM | 3 nM | – | – | – | – | Cn1cc(-c2ccc3[nH]nc(-c4cncc(O[C@@H]5CCCNC5)n4)c3c2)cn1 [Example 129, 5-(1-methyl-1H-pyrazol-4-yl)-3-(6-((3R)-3-piperidinyloxy)-2-pyrazinyl)-1H-indazole] |
| 227 nM | 83 nM | 82 nM | – | – | – | – | Brc1ccc2[nH]nc(-c3cncc(O[C@@H]4CCCNC4)n3)c2c1 [Example 135, 5-bromo-3-(6-((3R)-3-piperidinyloxy)-2-pyrazinyl)-1H-indazole] |
| 164 nM | 30 nM | 15 nM | – | – | – | – | c1cc(-c2ccc3[nH]nc(-c4cncc(O[C@@H]5CCCNC5)n4)c3c2)nc(C2CC2)c1 [Example 136, 5-(6-cyclopropyl-2-pyridinyl)-3-(6-((3R)-3-piperidinyloxy)-2-pyrazinyl)-1H-indazole] |
| 435 nM | 42 nM | 32 nM | – | – | – | – | c1cc(C2CC2)cc(-c2ccc3[nH]nc(-c4cncc(O[C@@H]5CCCNC5)n4)c3c2)n1 [Example 141, 5-(4-cyclopropyl-2-pyridinyl)-3-(6-((3R)-3-piperidinyloxy)-2-pyrazinyl)-1H-indazole] |
| – | – | – | 861 nM | > 31600 nM | 142 nM | 6 nM | NC1CCN(c2ccnc(-c3n[nH]c4ccc(-c5c(F)cccc5F)cc34)n2)CC1 [Example 516] |
| – | – | – | 176 nM | > 31600 nM | 65 nM | 2 nM | NC1CCN(c2cncc(-c3c[nH]c4ccc(-c5cncc(C6CC6)n5)cc34)n2)CC1 [Example 517] |
| – | – | – | 6920 nM | > 31600 nM | 97 nM | 25 nM | CC(C)Oc1cncc(-c2ccc3[nH]cc(-c4nnc(N[C@@H]5CCCNC5)o4)c3c2)n1 [Example 518] |
| – | – | – | 338 nM | > 31600 nM | 128 nM | 1 nM | NC1CCN(c2cncc(-c3c[nH]c4ccc(-c5cncc(NC6CC6)n5)cc34)n2)CC1 [Example 519] |
| – | – | – | 1010 nM | > 31600 nM | 18 nM | 5 nM | CC(C)Nc1nc(-c2n[nH]c3ccc(-c4c(F)cccc4F)cc23)cc(=O)[nH]1 [Example 524] |
| – | – | – | 779 nM | > 15800 nM | 36 nM | 13 nM | CC(C)Oc1nc(-c2n[nH]c3ccc(-c4c(F)cccc4F)cc23)cc(=O)[nH]1 [Example 528] |
| – | – | – | 156 nM | 3800 nM | 8 nM | 2 nM | COC(=O)c1ccc2[nH]nc(-c3cncc(N4CCC(N)CC4)n3)c2c1 [Example 558, methyl 3-(6-(4-amino-1-piperidinyl)-2-pyrazinyl)-1H-indazole-5-carboxylate] |
| – | – | – | 1760 nM | 13500 nM | 2 nM | 1 nM | NC1CCN(c2nc(O)cc(-c3n[nH]c4ccc(-c5c(F)cccc5F)cc34)n2)CC1 [Example 565] |
| – | – | – | 5590 nM | > 31600 nM | 23 nM | 4 nM | NC1CCN(c2cc(O)nc(-c3c[nH]c4ccc(-c5c(F)cccc5F)cc34)n2)CC1 [Example 566] |

| Compound | IC50 ([1]; enzyme assay, Pim-2) | IC50 ([2]; enzyme assay, Pim-1) | IC50 [3] | IC50 [4] | IC50 [5] | IC50 [1] | IC50 [2] |
| --- | --- | --- | --- | --- | --- | --- | --- |
| 3-(6-(4-amino-1-piperidinyl)-2-pyrazinyl)-N-benzyl-1H-indole-5-carboxamide [Example 241] | 2480 nM | 376 nM | 538 nM | – | – | – | – |
| 3-(6-(4-amino-1-piperidinyl)-2-pyrazinyl)-N-phenyl-1H-indole-5-carboxamide [Example 240] | > 3000 nM | 254 nM | 719 nM | – | – | – | – |
